Reference: paper PMC6226112 (Clinical and Translational Science, 2018)
Like-named read-outs stand apart in the source and are kept apart here.

Experiments:
[1] = both, human, in vivo
clinical [2] = conditions: both, human, in vivo
[3] = Trial 1 safety and tolerability; conditions: for Number of AEs considered related to the drug(s): 73 drug-related of 78 AEs
[4] = human, in vivo
[5] = GZR alone 200 mg once daily, ref historical database, cited from earlier work
[6] = steady state; cited from earlier work
clinical [7] = conditions: human, in vivo
[8] = Trial 2 safety and tolerability

COC(=O)N[C@H](C(=O)N1CCC[C@H]1c1nc(-c2ccc3c(c2)O[C@@H](c2ccccc2)n2c-3cc3cc(-c4c[nH]c([C@@H]5CCCN5C(=O)[C@@H](NC(=O)OC)C(C)C)n4)ccc32)c[nH]1)C(C)C [EBR, elbasvir]
GMRs for AUC0-∞, Cmax, and C24 (range over the three parameters) [1]: 1.13–1.22 | AUC(0-inf) (clinical [2]): 2.55 µM·h | Tmax (clinical [2]): 3.01 h | AUC(0-inf) (clinical [2]; po, 50 mg): 2.08 µM·h | Tolerability of coadministration with BUP/NAL [3]: generally well tolerated | Number of AEs considered related to the drug(s) [3]: 4

C=C[C@@H]1C[C@]1(NC(=O)[C@@H]1C[C@@H]2CN1C(=O)[C@H](C(C)(C)C)NC(=O)O[C@@H]1C[C@H]1CCCCCc1nc3ccc(OC)cc3nc1O2)C(=O)NS(=O)(=O)C1CC1 [GZR, grazoprevir]
C24, GM [4]: 13.5 nM | GMRs for AUC0-24, Cmax, and C24 (range over the three parameters) [4]: 0.80–0.97 | C24, GM [5]: 13.9 nM | Cmax ([5]; read-out: Cmax, GM): 583 nM | Exposure in HCV-infected people compared with healthy people [6]: ~2 fold | AUC(0-t) (clinical [7]): 2.13 µM·h | Cmax (clinical [7]): 473 nM | Tmax (clinical [7]): 4 h | Tolerability of coadministration with BUP/NAL [8]: generally well tolerated

C=CCN1CC[C@]23c4c5ccc(O)c4O[C@H]2C(=O)CC[C@@]3(O)[C@H]1C5 [NAL, naloxone]
Apparent terminal T½, GM [4]: 5.20 h | Cmax/D, GM [4]: 0.149 ng/mL/mg | AUC(0-inf) (clinical [2]): 0.416 ng·h/mL | Cmax (clinical [2]): 0.139 ng/mL | Tmax (clinical [2]): 0.98 h | AUC(0-inf) (clinical [2]; 2 mg): 0.47 ng·h/mL | Cmax (clinical [2]; 2 mg): 0.165 ng/mL | Tmax (clinical [7]): 1.24 h

O=C1CC[C@@]2(O)[C@H]3Cc4ccc(O)c5c4[C@@]2(CCN3CC2CC2)[C@H]1O5 [NTX, naltrexone]
Number of AEs considered related to the drug(s) [3]: three
